The source of these data is patent publication US9447157B2, “Nitration shielding peptides and methods of use thereof” (Augusta University Research Institute, Inc., priority 2013, dated 2016).

The target in the experiment is T1, PKG-1α (Homo sapiens, UniProt Q13976, Y247F).
T1 sequence (Q13976 2-671 Y247F): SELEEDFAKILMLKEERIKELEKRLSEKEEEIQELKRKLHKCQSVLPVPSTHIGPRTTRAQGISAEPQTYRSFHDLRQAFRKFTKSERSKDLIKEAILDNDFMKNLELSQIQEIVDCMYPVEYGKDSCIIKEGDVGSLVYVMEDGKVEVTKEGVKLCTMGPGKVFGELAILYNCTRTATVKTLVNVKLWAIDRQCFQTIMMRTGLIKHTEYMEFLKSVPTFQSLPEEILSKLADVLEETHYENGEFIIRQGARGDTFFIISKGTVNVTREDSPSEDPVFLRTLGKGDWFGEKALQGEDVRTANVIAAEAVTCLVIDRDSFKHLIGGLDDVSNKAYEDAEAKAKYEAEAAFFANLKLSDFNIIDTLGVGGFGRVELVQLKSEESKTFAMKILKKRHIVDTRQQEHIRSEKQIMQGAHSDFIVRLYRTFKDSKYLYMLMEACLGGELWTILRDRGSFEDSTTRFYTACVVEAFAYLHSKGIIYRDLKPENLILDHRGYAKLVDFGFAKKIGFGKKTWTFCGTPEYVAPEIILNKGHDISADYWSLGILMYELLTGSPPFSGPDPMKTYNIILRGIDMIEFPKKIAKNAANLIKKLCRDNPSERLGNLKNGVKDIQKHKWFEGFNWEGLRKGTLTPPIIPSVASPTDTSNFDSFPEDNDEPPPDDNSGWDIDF
As to the kind of experiment: [3H]cGMP binding assay. Further details: transfected with an expression plasmid containing a full length WT-PKG-1α cDNA; made in house; host or cells: HEK-293T (methods); the results paragraph b527 says PASMC. The settings on record: SIN-1 500 μM 30 min. On the procedure: HEK-293T cells were transiently transfected with either the WT-PKG-1α or the Y247FPKG-1α cDNA using Effectene transfection reagent (Qiagen), according to the manufacturer's instructions. Briefly, the cells were split the day before the transfection to low cell densities (25%) and were transfected 24 h later. After 48 h of transfection, the cells were incubated in DMEM serum free media containing 1% FBS and antibiotics for 4 h and then treated with or without SIN-1 (500 μM), for 30 min. This method produced an approximate 70% transfection efficiency of HEK-293T cells, as measured using green fluorescent protein vectors. […]
The batches of supernatant were pooled, and 2 μg of anti-PKG-1α antibody per mg of protein were added to the extract and rocked at 4° C. […] After 15 min of agitation at 4° C., the beads were pelleted by centrifugation, and the supernatant containing the PKG-1α protein was collected, quantified using Bradford reagent, and stored at −80° C.
To assay the binding of cGMP to WT- and Y247F-PKG-1α the enzymes were saturated with cGMP by incubating 50 μl aliquots of the diluted PKG constructs for 60 min at room temperature with 50 μl of [^3H]cGMP and 150 μl of cGMP-binding assay mixture (25 mM K2HPO4, 25 mM KH2PO4, 1 mM EDTA, pH 6.8, 2M NaCl, 200 μM 3-isobutyl-1-methylxanthine). […] The dissociation constant (Kd) values were determined using GraphPad Prism graphics.

Take “3-morpholinosydnonimine N-ethylcarbamide [SIN-1]”: the “Maximal [3H]cGMP binding to Y247F-PKG-1α” value is “but not to the Y247F-PKG-1α mutant”.
